In PubChem BioAssay (NCI):
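Test compounds were applied to cells in 96-well plates for 48 hours at 5 doses. Here, GI50 denotes the concentration required for 50% inhibition of growth. The concentration for full growth arrest is given as TGI.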

How the values were obtained:
Experiment in all cases: NCI tumour cell line growth inhibition, 48 h
[1] = tested on: OVCAR-8 ovarian
[2] = tested on: SNB-75 CNS
[3] = tested on: A549 NSCLC
[4] = tested on: U251 CNS
[5] = tested on: K-562 leukemia
[6] = tested on: OVCAR-5 ovarian
[7] = tested on: NCI/ADR-RES ovarian
[8] = tested on: HL-60(TB) leukemia
[9] = tested on: SF-539 CNS
[10] = tested on: RPMI-8226 leukemia

| SMILES | TGI [1] [µM] | TGI [2] [µM] | TGI [3] [µM] | TGI [4] [µM] | TGI [5] [µM] | TGI [6] [µM] | TGI [7] [µM] | GI50 [1] [µM] | GI50 [2] [µM] | GI50 [3] [µM] | GI50 [4] [µM] | GI50 [8] [µM] | TGI [8] [µM] | GI50 [5] [µM] | GI50 [9] [µM] | TGI [9] [µM] | GI50 [6] [µM] | GI50 [7] [µM] | TGI [10] [µM] |
| --- | --- | --- | --- | --- | --- | --- | --- | --- | --- | --- | --- | --- | --- | --- | --- | --- | --- | --- | --- |
| CC(CO)(CO)Nc1ncnc2ccccc12 | > 100 | > 100 | > 100 | > 100 | > 100 | > 100 | > 100 | – | – | – | – | – | – | – | – | – | – | – | – |
| Fc1ccc(-c2nnc3sc(COc4ccccc4Cl)nn23)cc1Cl | > 100 | > 100 | > 100 | 67.2 | 67.6 | > 100 | > 100 | 37.8 | 47.3 | 41.1 | 24.9 | 30.4 | > 100 | 24.6 | 41.4 | > 100 | 81 | 40.8 | – |
| Nc1nnc(N)n1NC(=O)C(=O)Nc1ccc([N+](=O)[O-])cc1 | > 100 | > 100 | > 100 | > 100 | > 100 | > 100 | – | – | – | – | – | – | > 100 | – | – | > 100 | – | – | > 100 |
| Cn1c(Sc2ccc(-c3cccnc3)n2C)ccc1-c1cccnc1 | 41.2 | 46.9 | 80.9 | 26.9 | 13.8 | 50.9 | 71.3 | – | – | – | – | – | 5.78 | – | – | 41.8 | – | – | 23.4 |
| COc1cc2c(cc1Oc1ccc(OC)c3c1CC1c4c(cc(OC)c(OC)c4-3)CCN1C)CC1c3c(cc(OC)c(OC)c3-2)CCN1C (stereo unspecified) | 16.3 | 10.1 | 25.9 | 4.19 | 3.92 | 12.8 | 18.3 | – | – | – | – | – | 2.72 | – | – | 3.39 | – | – | 3.97 |
| COc1ccc(CC2c3cc(OC)c(OC)c(OC)c3CC[N+]2(C)C)cc1Oc1ccc(CC2c3cc4c(c(OC)c3CCN2C)OCO4)cc1 (stereo unspecified) | > 100 | > 100 | > 100 | > 100 | > 100 | > 100 | > 100 | – | – | – | – | – | 89.7 | – | – | > 100 | – | – | – |
| C[n+]1ccc(-c2cc[n+](C)cc2)cc1 | > 100 | 99.8 | > 95 | > 70.9 | > 100 | 37.9 | – | – | – | – | – | – | 24.8 | – | – | > 46.4 | – | – | > 100 |
| COc1cc(C)c2c(=O)c3c(oc2c1)C(=O)c1c(O)c(OC)cc(O)c1C3=O | 0.551 | 3.84 | 7.84 | 2.53 | 4.39 | 5.36 | 2.62 | – | – | – | – | – | 2.57 | – | – | 4.19 | – | – | 4.48 |
| O=C(O)C1=NNC(C(=O)O)=NN1 | > 100 | > 100 | > 100 | > 100 | > 100 | > 100 | – | – | – | – | – | – | > 100 | – | – | > 100 | – | – | > 100 |
| COc1cc(O)c2c(c1)C(=O)c1cc(C)cc(O)c1C2=O | > 100 | > 100 | > 100 | > 100 | > 100 | > 100 | – | – | – | – | – | – | > 100 | – | – | > 100 | – | – | > 100 |
| CC(C)=CCC[C@](C)(O[C@@H]1O[C@H](CO)[C@@H](O)[C@H](O)[C@H]1O)[C@H]1CC[C@]2(C)[C@@H]1[C@H](O)C[C@@H]1[C@@]3(C)CC[C@H](O)C(C)(C)[C@@H]3[C@@H](O[C@@H]3O[C@H](CO)[C@@H](O)[C@H](O)[C@H]3O)C[C@]12C | > 100 | > 100 | > 100 | > 100 | > 100 | > 100 | – | – | – | – | – | – | > 100 | – | – | > 100 | – | – | > 100 |
| NC(=O)Nc1cc(O)ccc1N=Nc1ccc(S(=O)(=O)Nc2ccccn2)cc1 | > 100 | > 100 | > 100 | > 100 | > 100 | > 100 | – | – | – | – | – | – | > 100 | – | – | > 100 | – | – | > 100 |
| CCCCCCCCCCCCCCCCOCC(COP(=O)([O-])OCC[n+]1ccc(N(C)C)cc1)OCC (stereo unspecified) | 38.2 | 18.8 | 30.4 | 25.6 | 36.6 | – | – | – | – | – | – | – | 3.79 | – | – | 26.3 | – | – | 17.1 |
